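Values below derive from 48-hour exposures of cells grown in 96-well plates, with endpoints linearly interpolated between the two concentrations bracketing the appropriate inhibition level. At the GI50, growth is halved.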 Active and inactive are the calls of the source. No stated cut-off is given here; in the data, active = GI50 up to about 1.1 µM and inactive = higher.
Tests used:
Assay in all cases: NCI tumour cell line growth inhibition, 48 h
SF-539 = system: SF-539
MOLT-4 = system: MOLT-4
UACC-62 = system: UACC-62
MDA-MB-231 = system: MDA-MB-231
MCF7 = system: MCF7
CCRF-CEM = system: CCRF-CEM
HCC 2998 = system: HCC 2998
DU-145 = system: DU-145
SN12C = system: SN12C
T47D = system: T47D
SF-268 = system: SF-268
EKVX = system: EKVX
M14 = system: M14
UACC-257 = system: UACC-257
U-251 = system: U-251
MDA-MB-435 = system: MDA-MB-435
OVCAR-5 = system: OVCAR-5
HCT-116 = system: HCT-116
A498 = system: A498
NCI-H522 = system: NCI-H522

Structure (SMILES) | GI50 (SF-539) | GI50 (MOLT-4) | GI50 (UACC-62) | GI50 (MDA-MB-231) | GI50 (MCF7) | GI50 (CCRF-CEM) | GI50 (HCC 2998) | GI50 (DU-145) | GI50 (SN12C) | GI50 (T47D) | GI50 (SF-268) | GI50 (EKVX) | GI50 (M14) | GI50 (UACC-257) | GI50 (U-251) | GI50 (MDA-MB-435) | GI50 (OVCAR-5) | GI50 (HCT-116) | GI50 (A498) | GI50 (NCI-H522)
Cc1ccccc1Nc1nc(NNC(=O)Cc2ccccc2)nc(NNC(=O)c2ccncc2)n1 | > 10 µM (inactive) | > 10 µM (inactive) | > 10 µM (inactive) | > 10 µM (inactive) | > 10 µM (inactive) | > 10 µM (inactive) | > 10 µM (inactive) | > 10 µM (inactive) | > 10 µM (inactive) | > 10 µM (inactive) | > 10 µM (inactive) | > 10 µM (inactive) | > 10 µM (inactive) | > 10 µM (inactive) | > 10 µM (inactive) |  |  |  |  | 
O=C(c1cccc2ccccc12)C1(Br)S(=O)(=O)OCCOS1(=O)=O |  | > 100 µM (inactive) |  | > 100 µM (inactive) | > 100 µM (inactive) |  | > 100 µM (inactive) | > 100 µM (inactive) | > 100 µM (inactive) |  |  | > 100 µM (inactive) | > 100 µM (inactive) | > 100 µM (inactive) | > 100 µM (inactive) | > 100 µM (inactive) | > 100 µM (inactive) | > 100 µM (inactive) |  | 
COC(=O)CNC(=O)CNC(=O)CSc1nnc(COc2ccc(Cl)cc2)n1-c1ccccc1 | > 100 µM (inactive) | 36.6 µM (inactive) | 17.5 µM (inactive) | 19.1 µM (inactive) | > 100 µM (inactive) | 25.3 µM (inactive) | 42 µM (inactive) | > 100 µM (inactive) | > 100 µM (inactive) |  | 20.8 µM (inactive) | > 100 µM (inactive) | 37.4 µM (inactive) | 19.1 µM (inactive) | 49.9 µM (inactive) | 18.7 µM (inactive) | > 100 µM (inactive) | 38.7 µM (inactive) | > 100 µM (inactive) | 5.46 µM (inactive)
CC(=O)c1cccc(Nc2nc3ccccc3c3[nH]c4ccccc4c23)c1 | 4 µM (inactive) |  | 1.94 µM (inactive) | 3.19 µM (inactive) | 0.403 µM (active) | 5.74 µM (inactive) |  | 4.93 µM (inactive) | 3.49 µM (inactive) | 3.48 µM (inactive) | 3.67 µM (inactive) | 3.05 µM (inactive) | 8.79 µM (inactive) | 9.04 µM (inactive) | 3.98 µM (inactive) | 4.48 µM (inactive) | 6.52 µM (inactive) | 4.28 µM (inactive) |  | 2.57 µM (inactive)
O=c1c2c3c(sc2nc2n1sc1nc4sc5c(c4c(=O)n12)CCCC5)CCCC3 | 56 µM (inactive) | 37.1 µM (inactive) | 10.9 µM (inactive) | 25.9 µM (inactive) | 23.8 µM (inactive) | 24.4 µM (inactive) | 36.1 µM (inactive) | > 44.8 µM (inactive) | > 87.1 µM (inactive) |  | 42 µM (inactive) | 12 µM (inactive) | 98.2 µM (inactive) | > 96.8 µM (inactive) | > 83 µM (inactive) | 51.8 µM (inactive) | > 100 µM (inactive) | 35.7 µM (inactive) | > 100 µM (inactive) | 10.8 µM (inactive)
CC12CCC([C@H](Nc3cc(C(F)(F)F)cc(C(F)(F)F)c3)C1=O)C2(C)C (stereo not given in full) | > 100 µM (inactive) | > 100 µM (inactive) |  | > 100 µM (inactive) |  |  | > 100 µM (inactive) | > 100 µM (inactive) |  | > 100 µM (inactive) | > 100 µM (inactive) | > 100 µM (inactive) | > 100 µM (inactive) | > 100 µM (inactive) |  | > 100 µM (inactive) | > 100 µM (inactive) | > 100 µM (inactive) |  | 
COc1c(CC=C(C)C)c(O)c(C(CC(C)C)c2c(O)c3c(c(C(C)=O)c2O)OC(C(C)(C)O)C3)c(O)c1C(C)=O (stereo not given) | 4.24 µM (inactive) | 1.74 µM (inactive) | 4.94 µM (inactive) |  | 3.61 µM (inactive) | 2.58 µM (inactive) | 3.63 µM (inactive) | 4.54 µM (inactive) | 3.93 µM (inactive) | 3.46 µM (inactive) | 4.53 µM (inactive) | 3.76 µM (inactive) | 6.05 µM (inactive) | 4.18 µM (inactive) |  | 4.63 µM (inactive) | 6.93 µM (inactive) | 3.64 µM (inactive) | 3.84 µM (inactive) | 3.42 µM (inactive)
CCOP(=O)(Cc1nc(C#N)c(N)o1)OCC |  | > 100 µM (inactive) | > 100 µM (inactive) | > 100 µM (inactive) | > 100 µM (inactive) | > 100 µM (inactive) | > 100 µM (inactive) | > 100 µM (inactive) | > 100 µM (inactive) |  | > 100 µM (inactive) | > 100 µM (inactive) |  | > 100 µM (inactive) | > 100 µM (inactive) | > 100 µM (inactive) | > 100 µM (inactive) | > 100 µM (inactive) | > 100 µM (inactive) | > 100 µM (inactive)
COC(=O)C(=O)C(C#N)c1cccc(Cl)c1 (stereo not given) | > 100 µM (inactive) | > 100 µM (inactive) | > 100 µM (inactive) |  |  | > 100 µM (inactive) | > 100 µM (inactive) |  | > 100 µM (inactive) |  | > 100 µM (inactive) | > 100 µM (inactive) | > 100 µM (inactive) | > 100 µM (inactive) | > 100 µM (inactive) |  | > 100 µM (inactive) | > 100 µM (inactive) | > 100 µM (inactive) | > 100 µM (inactive)
CCOC(=O)C(=NN(C)c1ncccc1N)C(=O)OCC | 22.9 µM (inactive) | 21.5 µM (inactive) | > 100 µM (inactive) | 25.6 µM (inactive) | 20.5 µM (inactive) | 37.5 µM (inactive) |  | > 100 µM (inactive) | 24.7 µM (inactive) | 25.9 µM (inactive) | > 100 µM (inactive) |  | 32.5 µM (inactive) | 24.4 µM (inactive) | > 100 µM (inactive) | 19.3 µM (inactive) |  | 26.4 µM (inactive) | 39.8 µM (inactive) | 
Cc1ccc(C)c(NC(=O)/C(=N\N)C(c2cnc3ccc([N+](=O)[O-])cc3n2)[N+](=O)[O-])c1 (stereo not given) | > 100 µM (inactive) | 54.5 µM (inactive) | > 100 µM (inactive) | 37.8 µM (inactive) | 60.8 µM (inactive) | 4.99 µM (inactive) | 69.8 µM (inactive) |  | > 100 µM (inactive) | 87.7 µM (inactive) | 93.5 µM (inactive) | 43.3 µM (inactive) | > 100 µM (inactive) | > 100 µM (inactive) | > 100 µM (inactive) | 62.5 µM (inactive) | > 100 µM (inactive) | > 100 µM (inactive) | 83.2 µM (inactive) | 19.7 µM (inactive)
COc1ccc2c(c1)C1=NCCN(CCN(C)C)c3ccc([N+](=O)[O-])c(c31)N2 | 0.432 µM (active) | 0.355 µM (active) | 0.535 µM (active) | 0.196 µM (active) | 0.365 µM (active) | 0.258 µM (active) |  | 0.48 µM (active) | 0.568 µM (active) | 0.156 µM (active) | 0.509 µM (active) | 0.736 µM (active) | 0.489 µM (active) | 1.38 µM (inactive) | 0.649 µM (active) | 0.627 µM (active) | 1.59 µM (inactive) | 0.116 µM (active) | 1.59 µM (inactive) | 
O=C1CCCNn2c(nc3ncccc3c2=O)N1 | > 100 µM (inactive) | > 100 µM (inactive) | > 100 µM (inactive) | > 100 µM (inactive) | > 100 µM (inactive) | > 100 µM (inactive) |  |  |  | > 100 µM (inactive) | > 100 µM (inactive) | > 100 µM (inactive) | > 100 µM (inactive) | > 100 µM (inactive) | > 100 µM (inactive) | > 100 µM (inactive) | > 100 µM (inactive) | > 100 µM (inactive) | > 100 µM (inactive) | > 100 µM (inactive)
CN(C)c1nc(N(C)C)nc(N(C)CN(C)c2nc(N(C)C)nc(N(C)C)n2)n1 | > 100 µM (inactive) | > 100 µM (inactive) | > 100 µM (inactive) |  |  | > 100 µM (inactive) | > 100 µM (inactive) |  | > 100 µM (inactive) |  | > 100 µM (inactive) | > 100 µM (inactive) | > 100 µM (inactive) | > 100 µM (inactive) | > 100 µM (inactive) |  | > 100 µM (inactive) | > 100 µM (inactive) | > 100 µM (inactive) | 76.9 µM (inactive)
O=C(O)c1cccc(F)c1C(=O)c1ccc2ccccc2c1 | > 100 µM (inactive) |  | > 100 µM (inactive) | > 100 µM (inactive) | > 100 µM (inactive) | > 100 µM (inactive) |  |  | > 100 µM (inactive) | 3.94 µM (inactive) | > 100 µM (inactive) | > 100 µM (inactive) | > 100 µM (inactive) | > 100 µM (inactive) | > 100 µM (inactive) | > 100 µM (inactive) | > 100 µM (inactive) | > 100 µM (inactive) | > 100 µM (inactive) | 62.2 µM (inactive)
CC1=C(N(C)C)C(=O)c2nc3n(c2C1=O)CCC3OC(N)=O (stereo not given) | 17.5 µM (inactive) | 13.1 µM (inactive) | 5.58 µM (inactive) |  |  | 15.1 µM (inactive) | 18.2 µM (inactive) |  | 15.2 µM (inactive) |  | 20.1 µM (inactive) | 20.5 µM (inactive) | 13.6 µM (inactive) | 14.2 µM (inactive) | 23.2 µM (inactive) |  | 19.6 µM (inactive) | 15.4 µM (inactive) | 13.2 µM (inactive) | 15.2 µM (inactive)
Cc1ccc2c(O)cc(-c3cccc(Cl)c3)nc2n1 | < 0.01 µM (active) | < 0.0229 µM (active) | < 0.01 µM (active) | 0.0537 µM (active) | < 0.0217 µM (active) | < 0.0238 µM (active) | 0.12 µM (active) | 0.194 µM (active) |  |  | 0.59 µM (active) | > 68.1 µM (inactive) | 0.0306 µM (active) | 0.0393 µM (active) | 0.0308 µM (active) | < 0.01 µM (active) |  | < 0.016 µM (active) | 0.0333 µM (active) | < 0.01 µM (active)

Reference: ChEMBL document CHEMBL1201862, “PubChem BioAssay data set” (2004)
